Data: US9078871B2, “Estrogen receptor modulators and uses thereof” (SERAGON PHARMACEUTICALS, INC., priority 2010, dated 2015)

Tests used:
ER-α = biological target: T1, ER-α (Homo sapiens, UniProt P03372); assay: ER-α in Cell Western Assay (SP1); type: cell-based; conditions: MCF-7 cells, SP1 rabbit monoclonal Ab, 4 or 24 hr post compound addition, read-out: ER In-Cell Western Assay (SP1); for Emax: MCF7, Max Response; for DC50: IC50
T1 construct: endogenous in cells; host or cells: MCF-7
T1 sequence (P03372 1-595): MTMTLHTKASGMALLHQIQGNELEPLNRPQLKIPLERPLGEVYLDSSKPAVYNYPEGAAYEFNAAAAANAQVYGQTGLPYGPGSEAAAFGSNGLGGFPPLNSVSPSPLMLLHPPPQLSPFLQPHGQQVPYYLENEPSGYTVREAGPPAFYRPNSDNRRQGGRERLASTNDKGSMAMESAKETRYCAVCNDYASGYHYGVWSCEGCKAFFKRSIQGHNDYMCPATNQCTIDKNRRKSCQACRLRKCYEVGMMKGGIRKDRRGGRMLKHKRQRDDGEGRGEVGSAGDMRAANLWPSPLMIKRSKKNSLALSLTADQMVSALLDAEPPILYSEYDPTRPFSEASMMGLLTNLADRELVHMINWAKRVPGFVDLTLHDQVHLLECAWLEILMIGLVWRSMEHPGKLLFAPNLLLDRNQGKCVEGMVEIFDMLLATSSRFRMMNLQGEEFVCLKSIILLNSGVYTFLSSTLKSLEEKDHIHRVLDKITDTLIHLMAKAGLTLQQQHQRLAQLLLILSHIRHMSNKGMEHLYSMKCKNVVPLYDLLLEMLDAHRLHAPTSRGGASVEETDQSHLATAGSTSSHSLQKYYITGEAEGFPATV
Experimental: MCF-7 cells were adjusted to a concentration of 200,000 cells per mL in RPMI containing 10% charcoal-stripped FBS and 20 mM HEPES. 16 microliters of the cell suspension (3200 cells) was added to each well of a poly-D-lysine 384 well plate, and the cells were incubated overnight to allow the cells to adhere. The following day an eleven point, serial semilog dilution of each compound was added to the cells in 16 μL at a final concentration ranging from 0.3-0.000003 μM. At 4 or 24 hr post compound addition, the cells were fixed (10% formalin in PBS) for 20 minutes. Cells were permeabalized in PBS 0.1% Triton and blocked with LICOR blocking buffer (50 μl/well, 90′). The wells were then incubated overnight at 4° C. with SP1 rabbit monoclonal Ab (Thermo Scientific) diluted 1:1000 in LICOR blocking buffer/0.1% Tween-20. Wells which were treated with blocking buffer with Tween but no antibody were used as a background control. Wells were washed with 0.1% Tween-20/PBS and then incubated in goat anti-rabbit IRDye™ 800CW (LICOR Inc.; 1:1000) and DRAQ5 DNA dye (1:2000 for 2 mM stock) diluted in LICOR blocking buffer containing 0.1% Tween-20 and 0.01% SDS for 60 minutes. Cells were washed (50 μl/well, 5′ each) in 0.1% Tween-20/PBS. Plates were scanned on a LICOR Odyssey infrared imaging system. Integrated intensities in the 800 nm channel and 700 nm channel were measured to determine levels of ER and DNA respectively. Percent ER levels were determined as follows: (Integrated intensity 800 nm sample/integrated intensity 700 nm sample)/(Integrated intensity 800 nm untreated cells/integrated intensity 700 nm untreated cells)×100=% ER levels.

MCF-7 cells = assay: Breast Cancer Cell Viability Assay (MCF7 Viability Assay); type: cell-based; conditions: 5 days' compound exposure, CellTiter-Glo; for IC50: Homo sapiens, MCF7, 120 h
Experimental: MCF-7 cells were adjusted to a concentration of 20,000 cells per mL in RPMI containing 10% FBS and 20 mM HEPES. 16 microliters of the cell suspension (320 cells) was added to each well of a 384 well plate, and the cells were incubated overnight to allow the cells to adhere. The following day an eleven point, serial semilog dilution of each compound was added to the cells in 16 μL at a final concentration ranging from 0.3-0.000003 μM. After 5 days' compound exposure, 16 μL of CellTiter-GLo (Promega, Madison Wis.) was added to the cells the relative luminescence units (RLUs) of each well was determined. CellTiter-Glo added to 32 μL of medium without cells was used to obtain a background value. The Percent viability of each sample was determined as follows: (RLU sample-RLU background/RLU untreated cells-RLU background)×100=% viability.

Row | Structure (SMILES) | Emax (ER-α) [%] | DC50 (ER-α) [nM] | MCF7 Viability Assay Max Response (MCF-7 cells) | IC50 (MCF-7 cells) [nM]
1 | CC1=C(c2ccc(F)cc2)[C@H](c2ccc(OC[C@H](C)N3CC[C@@H](C)C3)cc2)Oc2ccc(O)cc21 (single isomer, unassigned) [Example 30a] | 60 to 85 | ≤ 1 | ++ (++ = a single % value ≧50%) | ≤ 1
2 | CC1=C(c2ccc(F)cc2)[C@@H](c2ccc(OC[C@H](C)N3CC[C@@H](C)C3)cc2)Oc2ccc(O)cc21 (single isomer, unassigned) [Example 30b] | 60 to 85 | > 1 | ++ (++ = a single % value ≧50%) | > 1
3 | CC1=C(c2cccc(O)c2C)C(c2ccc(OC[C@H](C)N3CC[C@@H](C)C3)cc2)Oc2ccc(O)cc21 (stereo partly drawn) [Example 40, 3-(3-Hydroxy-2-methylphenyl)-4-methyl-2-(4-((S)-2-((R)-3-methylpyrrolidin-1-yl)propoxy)phenyl)-2H-chromen-6-ol] | 60 to 85 | ≤ 1 | ++ (++ = a single % value ≧50%) | ≤ 1
4 | CC1=C(c2ccc(O)cc2C)C(c2ccc(OC[C@H](C)N3CC[C@@H](C)C3)cc2)Oc2ccc(O)cc21 (stereo partly drawn) [Example 41, 3-(4-Hydroxy-2-methylphenyl)-4-methyl-2-(4-((S)-2-((R)-3-methylpyrrolidin-1-yl)propoxy)phenyl)-2H-chromen-6-ol] | 60 to 85 | ≤ 1 | ++ (++ = a single % value ≧50%) | ≤ 1
5 | CC1=C(c2ccc(O)c(C)c2)C(c2ccc(OC[C@H](C)N3CC[C@@H](C)C3)cc2)Oc2ccc(O)cc21 (stereo partly drawn) [Example 42, 3-(4-Hydroxy-3-methylphenyl)-4-methyl-2-(4-((S)-2-((R)-3-methylpyrrolidin-1-yl)propoxy)phenyl)-2H-chromen-6-ol] | ≥ 85 | ≤ 1 | ++ (++ = a single % value ≧50%) | ≤ 1
6 | CC1=C(c2cc(O)cc(F)c2)C(c2ccc(OC[C@H](C)N3CC[C@@H](C)C3)cc2)Oc2ccc(O)cc21 (stereo partly drawn) [Example 43, 3-(3-Fluoro-5-hydroxyphenyl)-4-methyl-2-(4-((S)-2-((R)-3-methylpyrrolidin-1-yl)propoxy)phenyl)-2H-chromen-6-ol] | ≥ 85 | ≤ 1 | ++ (++ = a single % value ≧50%) | ≤ 1
7 | CC1=C(c2ccc(Cl)cc2)C(c2ccc(OC[C@H](C)N3CC[C@@H](C)C3)cc2)Oc2ccc(O)cc21 (stereo partly drawn) [Example 44, 3-(4-Chlorophenyl)-4-methyl-2-(4-((S)-2-((R)-3-methylpyrrolidin-1-yl)propoxy)phenyl)-2H-chromen-6-ol] | 60 to 85 | > 1 | ++ (++ = a single % value ≧50%) | > 1
8 | CC1=C(c2ccc(O)cc2F)C(c2ccc(OC[C@H](C)N3CC[C@@H](C)C3)cc2)Oc2ccc(O)cc21 (stereo partly drawn) [Example 45, 3-(2-Fluoro-4-hydroxyphenyl)-4-methyl-2-(4-((S)-2-((R)-3-methylpyrrolidin-1-yl)propoxy)phenyl)-2H-chromen-6-ol] | ≥ 85 | ≤ 1 | ++ (++ = a single % value ≧50%) | ≤ 1
9 | CC1=C(c2ccc(F)c(F)c2)C(c2ccc(OC[C@H](C)N3CC[C@@H](C)C3)cc2)Oc2ccc(O)cc21 (stereo partly drawn) [Example 46, 3-(3,4-Difluorophenyl)-4-methyl-2-(4-((S)-2-((R)-3-methylpyrrolidin-1-yl)propoxy)phenyl)-2H-chromen-6-ol] | 60 to 85 | > 1 | ++ (++ = a single % value ≧50%) | > 1
10 | CC1=C(c2cc(F)c(O)c(F)c2)C(c2ccc(OC[C@H](C)N3CC[C@@H](C)C3)cc2)Oc2ccc(O)cc21 (stereo partly drawn) [Example 47, 3-(3,5-Difluoro-4-hydroxyphenyl)-4-methyl-2-(4-((S)-2-((R)-3-methylpyrrolidin-1-yl)propoxy)phenyl)-2H-chromen-6-ol] | ≥ 85 | ≤ 1 | ++ (++ = a single % value ≧50%) | ≤ 1
11 | CC1=C(c2ccc(F)c(O)c2F)C(c2ccc(OC[C@H](C)N3CC[C@@H](C)C3)cc2)Oc2ccc(O)cc21 (stereo partly drawn) [Example 48, 3-(2,4-Difluoro-3-hydroxyphenyl)-4-methyl-2-(4-((S)-2-((R)-3-methylpyrrolidin-1-yl)propoxy)phenyl)-2H-chromen-6-ol] | ≥ 85 | ≤ 1 | ++ (++ = a single % value ≧50%) | > 1
12 | CC1=C(c2cc(O)c(F)c(F)c2)C(c2ccc(OC[C@H](C)N3CC[C@@H](C)C3)cc2)Oc2ccc(O)cc21 (stereo partly drawn) [Example 49, 3-(3,4-Difluoro-5-hydroxyphenyl)-4-methyl-2-(4-((S)-2-((R)-3-methylpyrrolidin-1-yl)propoxy)phenyl)-2H-chromen-6-ol] | ≥ 85 | ≤ 1 | ++ (++ = a single % value ≧50%) | ≤ 1
13 | CC1=C(c2ccc(F)cc2Cl)C(c2ccc(OC[C@H](C)N3CC[C@@H](C)C3)cc2)Oc2ccc(O)cc21 (stereo partly drawn) [Example 50, 3-(2-Chloro-4-fluorophenyl)-4-methyl-2-(4-((S)-2-((R)-3-methylpyrrolidin-1-yl)propoxy)phenyl)-2H-chromen-6-ol] | 60 to 85 | ≤ 1 | ++ (++ = a single % value ≧50%) | ≤ 1
14 | CC1=C(c2cccc(O)c2)C(c2ccc(OC[C@H](C)n3cnc(C)c3)cc2)Oc2ccc(O)cc21 (stereo partly drawn) [Example 51, 3-(3-Hydroxyphenyl)-4-methyl-2-(4-((S)-2-(4-methyl-1H-imidazol-1-yl)propoxy)phenyl)-2H-chromen-6-ol] | 60 to 85 | ≤ 1 | ++ (++ = a single % value ≧50%) | ≤ 1
15 | CC1=C(c2ccc(F)cc2F)C(c2ccc(OC[C@H](C)N3CC[C@@H](C)C3)cc2)Oc2ccc(O)cc21 (stereo partly drawn) [Example 52, 3-(2,4-Difluorophenyl)-4-methyl-2-(4-((S)-2-((R)-3-methylpyrrolidin-1-yl)propoxy)phenyl)-2H-chromen-6-ol] | 60 to 85 | ≤ 1 | ++ (++ = a single % value ≧50%) | ≤ 1
16 | CC1=C(c2cccc(O)c2F)C(c2ccc(OC[C@H](C)N3CC[C@@H](C)C3)cc2)Oc2ccc(O)cc21 (stereo partly drawn) [Example 60, 3-(2-Fluoro-3-hydroxyphenyl)-4-methyl-2-(4-((S)-2-((R)-3-methylpyrrolidin-1-yl)propoxy)phenyl)-2H-chromen-6-ol] | ≥ 85 | ≤ 1 | ++ (++ = a single % value ≧50%) | ≤ 1
17 | CC1=C(c2cccc(O)c2)C(c2ccc(OC[C@H](C)N3CC[C@@H](C)C3)cc2)Oc2ccc(O)c(F)c21 (stereo partly drawn) [Example 61, 5-Fluoro-3-(3-hydroxyphenyl)-4-methyl-2-(4-((S)-2-((R)-3-methylpyrrolidin-1-yl)propoxy)phenyl)-2H-chromen-6-ol] | ≥ 85 | ≤ 1 | ++ (++ = a single % value ≧50%) | ≤ 1
